Active and inactive are the calls of the source. How the calls were made is not given here.

For this assay, the system named is MRP1 cells, doxorubicin viability shift, 10 uM compound. Put plainly: viability protection against doxorubicin, MRP-1 line – cell-based, doxorubicin EC50 shift, dose response (AID 844). The settings on record: for EC50: measured here: doxorubicin EC50 with compound.

Regarding `Cc1cc2nc(-c3cccc(NC(=O)c4ccc(Br)o4)c3C)oc2cc1C`, the fold increase in Dox EC50 was 1.03 (inactive) and the EC50 (usually the concentration needed to bring the measured effect to its halfway point) stood at 5.56 µM.

As to `Cc1ccc(CCNC(=O)C2CCCN2S(=O)(=O)c2ccc3c(c2)CCC(=O)N3)cc1` (configuration not stated), the fold increase in Dox EC50 was 0.64 (inactive) and the 50% effective concentration (EC50) was found to be 3.46 µM.

Regarding `Cc1ccc(Cl)cc1N1CCN(C(=O)c2cc3c(=O)n(C)c4ccccc4c3n2C)CC1`, the fold increase in Dox EC50 was 0.19 (inactive) and the EC50 was determined as 1 µM.

With `CCOC(=O)CN1C(=O)C(C)(C)Oc2ccc(C(=O)Nc3ccccc3OC)cc21`, the fold increase in Dox EC50 is 0.85 (inactive) and the half-maximal effective concentration (EC50) was found to be 4.6 µM.

In the case of `c1ccc(-n2ncc3c(NCc4cccnc4)ncnc32)cc1`, the fold increase in Dox EC50 was 0.57 (inactive) and the EC50 worked out at 3.09 µM.

`C/C(=N\NC(=O)c1ccc(Cn2cc([N+](=O)[O-])cn2)o1)c1cccc(NC(=O)c2cccnc2)c1`: the fold increase in Dox EC50 was 0.73 (inactive) and the EC50 came to 3.94 µM.

`Cc1cc(C)n(CCC(=O)N/N=C/c2ccccc2O)n1`: the fold increase in Dox EC50 is 0.28 (inactive) and the EC50 was 1.54 µM.

As for `O=C(c1ccc(COc2ccc(Br)cc2)o1)N1N=C(C(F)F)CC1(O)C(F)F` (configuration not stated), the fold increase in Dox EC50 was 1.06 (inactive) and the concentration for a half-maximal effect (EC50) worked out at 5.71 µM.

For `NNC(=O)CNC(c1ccccc1)c1cc(Br)ccc1NC(=O)c1cccc(Cl)c1` (configuration not stated), the fold increase in Dox EC50 is 1.21 (inactive) and the EC50 stood at 6.53 µM.

Regarding `COc1ccc(Cl)cc1N1C(=O)C2CCCN2C1c1ccc(F)c(F)c1` (configuration not stated), the fold increase in Dox EC50 is 0.85 (inactive) and the EC50 was determined as 4.61 µM.

As for `CCc1nnc(NC(=O)C2CCCN2S(=O)(=O)c2ccccc2)s1` (configuration not stated), the fold increase in Dox EC50 was 1.46 (inactive) and the 50% effective concentration (EC50) was 7.89 µM.

On to `Cc1c(C(=O)OC(C)C)sc(N)c1C(=O)OC(C)C`, for which the fold increase in Dox EC50 was 0.94 (inactive) and the EC50 worked out at 5.08 µM.

For the compound `COc1ccc(NC(=O)COC(=O)c2c3c(nc4ccccc24)CCCC3)cc1Cl`, the fold increase in Dox EC50 is 0.68 (inactive) and the EC50 turned out to be 3.65 µM.

`C/C(=N\NC(=O)c1cccc(S(=O)(=O)Nc2cccc(Cl)c2)c1)c1cccs1`: the fold increase in Dox EC50 was 0.65 (inactive) and the EC50 was found to be 3.49 µM.

For the compound `CC1=C(C(=O)Nc2ccccc2)C(c2ccc(C)o2)N2C(=O)CSC2=N1` (configuration not stated), the fold increase in Dox EC50 was 0.84 (inactive) and the EC50 turned out to be 4.55 µM.

`CCOC(=O)c1nnc(-c2ccccc2)nc1Oc1ccccc1Cl`: the fold increase in Dox EC50 is 0.99 (inactive) and the EC50 was 5.34 µM.

For `COc1ccccc1C1C(C(=O)c2sc(C)nc2C)=C(O)C(=O)N1CCN1CCOCC1` (configuration not stated), the fold increase in Dox EC50 is 0.71 (inactive) and the EC50 was 3.81 µM.

As to `O=C(Cn1c(COc2ccc(Cl)cc2)nc2ccccc21)NCC(F)(F)F`, the fold increase in Dox EC50 was 0.75 (inactive) and the concentration for a half-maximal effect (EC50) turned out to be 4.04 µM.

For `COc1cccc(C2CC(c3ccc(Cl)cc3)Nc3nc(N)nn32)c1` (configuration not stated), the fold increase in Dox EC50 is 0.88 (inactive) and the EC50 came to 4.77 µM.

With `COC(=O)c1ccc(OC)c(CSc2nnc(COc3ccc(Cl)cc3)o2)c1`, the fold increase in Dox EC50 was 1.44 (inactive) and the EC50 was determined as 7.77 µM.

With `COc1ccc(OC)c(-c2cc(C(=O)Nc3c(C)nn(Cc4ccccc4C)c3C)no2)c1`, the fold increase in Dox EC50 is 0.65 (inactive) and the concentration giving a half-maximal response (EC50) stood at 3.49 µM.

In the case of `CCc1ccc(-c2nc(-c3ccncc3)no2)cc1`, the fold increase in Dox EC50 is 0.89 (inactive) and the EC50 was determined as 4.82 µM.

Regarding `CCc1nnc(NC(=O)C2CCCN2S(=O)(=O)c2ccc(F)cc2)s1` (configuration not stated), the fold increase in Dox EC50 was 1.03 (inactive) and the EC50 was 5.54 µM.

As for `O=C(CC1SC(=O)N(c2ccccc2)C1=O)Nc1ccccc1` (configuration not stated), the fold increase in Dox EC50 is 1.19 (inactive) and the EC50 amounted to 6.42 µM.

`C=CCSC1=NC(=O)/C(=C/c2cccs2)S1`: the fold increase in Dox EC50 was 1.13 (inactive) and the EC50 was found to be 6.1 µM.

Consider `CC(C)N(Cc1cc2ccccc2[nH]c1=O)C(=O)C(C)(C)C`, for which the fold increase in Dox EC50 is 1.47 (inactive) and the half-maximal effective concentration (EC50) turned out to be 7.93 µM.

With `COc1ccc(NC(=O)c2c(F)cccc2F)cc1S(=O)(=O)Nc1ccc(Br)cc1`, the fold increase in Dox EC50 is 0.71 (inactive) and the EC50 came out at 3.86 µM.

For the compound `O=C(NCC(F)(F)F)Nc1nnc(C(F)(F)F)s1`, the fold increase in Dox EC50 was 1.54 and the EC50 came to 8.33 µM.

For the compound `CCN(CC)S(=O)(=O)c1ccc2c(c1)nc(SCn1nnc3ccccc3c1=O)n2CC`, the fold increase in Dox EC50 is 0.52 (inactive) and the EC50 came to 2.79 µM.

As for `CCOC(=O)c1ccc(N2CN=C3SCC(=O)N3C2)cc1`, the fold increase in Dox EC50 is 0.3 (inactive) and the EC50 is 1.6 µM.

As to `O=C(CCN1C(=O)/C(=C/c2ccccc2)SC1=S)NNC(=O)c1cccnc1`, the fold increase in Dox EC50 is 1.27 (inactive) and the EC50 was determined as 6.88 µM.

As for `CC1=NN(C(=O)c2ccc(Cn3nc(C)c(Br)c3C)cc2)C(O)(C(F)(F)F)C1` (configuration not stated), the fold increase in Dox EC50 was 1.15 (inactive) and the EC50 came to 6.18 µM.

In the case of `Cc1nnc(NC(=O)C(C)Sc2nncn2C)s1` (configuration not stated), the fold increase in Dox EC50 is 0.77 (inactive) and the EC50 was 4.15 µM.

On to `CC(OC(=O)c1snc(C(=O)NC2CCCCC2)c1N)C(=O)NC(C)(C)C` (configuration not stated), for which the fold increase in Dox EC50 was 1.1 (inactive) and the EC50 came to 5.93 µM.

As for `Cc1onc(-c2ccccc2Cl)c1C(=O)Nc1nnc(-c2ccc(Br)cc2)s1`, the fold increase in Dox EC50 was 0.75 (inactive) and the EC50 was found to be 4.04 µM.

On to `CC(/C=N\NC(=O)CN1CCN(S(=O)(=O)c2ccc(C)cc2)CC1)=C\c1ccccc1`, for which the fold increase in Dox EC50 was 1.26 (inactive) and the EC50 stood at 6.79 µM.

Turning to `Cc1ccc(NC(=O)CSc2nc(O)cc(=O)n2C)cc1`, the fold increase in Dox EC50 was 1.34 (inactive) and the EC50 came to 7.25 µM.

Consider `Cc1cc(NC(=O)CN2C(=O)S/C(=C\c3ccccc3)C2=O)no1`, for which the fold increase in Dox EC50 is 1.03 (inactive) and the EC50 came out at 5.58 µM.

Consider `CC1(C)O[C@@H]2C[C@H]3[C@@H]4CCC5=CC(=O)C=C[C@]5(C)[C@@]4(F)[C@@H](O)C[C@]3(C)[C@]2(C(=O)CO)O1`, for which the fold increase in Dox EC50 is 0.62 (inactive) and the EC50 was 3.33 µM.

`CCOC(=O)c1c(NC(=O)CSc2ncn[nH]2)sc(C)c1C`: the fold increase in Dox EC50 was 0.32 (inactive) and the EC50 was 1.74 µM.

As for `O=C(NC1CCCC1)C(c1c[nH]c2ccccc12)N(C(=O)Cn1nnc(-c2ccc(Cl)cc2)n1)c1ccccc1` (configuration not stated), the fold increase in Dox EC50 is 0.99 (inactive) and the EC50 turned out to be 5.35 µM.

In the case of `Cc1cc(C)c(S(C)(=O)=O)c(Sc2ccc(Cl)cc2)n1`, the fold increase in Dox EC50 was 0.81 (inactive) and the EC50 turned out to be 4.38 µM.

`COC(=O)N/N=C/c1ccc(-c2cc(Cl)cc(Cl)c2)o1`: the fold increase in Dox EC50 is 1.06 (inactive) and the 50% effective concentration (EC50) was 5.71 µM.

In the case of `Cc1noc(/C=C/N(C)C)c1S(=O)(=O)N1CCCC(C(=O)NCc2cccs2)C1` (configuration not stated), the fold increase in Dox EC50 is 1.32 (inactive) and the EC50 amounted to 7.11 µM.

For `c1ccc(C(c2ccccc2)N2CCN(c3nc4ccccc4n4cnnc34)CC2)cc1`, the fold increase in Dox EC50 is 0.81 (inactive) and the EC50 came out at 4.39 µM.

With `O=C1Cc2ccccc2C(=O)N1CCc1ccccc1`, the fold increase in Dox EC50 was 0.44 (inactive) and the EC50 was 2.37 µM.

On to `CC1CCc2c(C(=O)OCC(=O)Nc3cccc(S(=O)(=O)N4CCCCCC4)c3)csc2C1` (configuration not stated), for which the fold increase in Dox EC50 was 1.05 (inactive) and the EC50 turned out to be 5.68 µM.

Take `CC(O)(CS(=O)(=O)Cc1ccccc1)C(=O)Nc1ccc(C(F)(F)F)cc1` (configuration not stated): the fold increase in Dox EC50 was 1.27 (inactive) and the EC50 amounted to 6.84 µM.

`Cc1cc(/C=C2\NC(=O)N(Cc3ccc(Cl)cc3)C2=O)c(C)n1C`: the fold increase in Dox EC50 was 1.1 (inactive) and the EC50 amounted to 5.93 µM.

With `CCN(CC)S(=O)(=O)c1cccc(NC(=O)CCSc2ccc(Cl)cc2)c1`, the fold increase in Dox EC50 was 0.89 (inactive) and the EC50 stood at 4.81 µM.

`O=C(Cn1c(=O)oc2cc(S(=O)(=O)N3CCCC3)ccc21)NCc1ccccn1`: the fold increase in Dox EC50 was 1.15 (inactive) and the concentration giving a half-maximal response (EC50) was determined as 6.19 µM.

For `Cc1ccc(S(=O)(=O)Nc2ccc3ncccc3c2)cc1`, the fold increase in Dox EC50 is 1.36 (inactive) and the EC50 came out at 7.32 µM.

As to `Cc1c(NC(=O)CSc2ccc(Cl)cc2)cccc1-c1nc2ncccc2o1`, the fold increase in Dox EC50 was 0.99 (inactive) and the EC50 was 5.34 µM.

With `Cc1cc(C(=O)N/N=C/c2cc(Br)ccc2OC(=O)c2ccccc2)n[nH]1`, the fold increase in Dox EC50 is 0.15 (inactive) and the EC50 is 0.808 µM.

As to `CC(C)CC(=O)n1sc(NC(=O)c2ccccc2)nc1=O`, the fold increase in Dox EC50 is 0.92 (inactive) and the EC50 was found to be 4.95 µM.

On to `Cc1cccc(OCCNC(=O)c2ccc(Oc3ccc(C(F)(F)F)cc3[N+](=O)[O-])cc2)c1`, for which the fold increase in Dox EC50 is 1.12 (inactive) and the EC50 worked out at 6.05 µM.

As to `COc1ccccc1NS(=O)(=O)c1cc(NC(=O)/C=C/c2cccs2)ccc1N1CCOCC1`, the fold increase in Dox EC50 was 0.81 (inactive) and the EC50 was found to be 4.36 µM.

Take `CCOC(=O)CN(C(=O)CSc1nnc(COc2ccc(OC)cc2)n1C)c1ccccc1`: the fold increase in Dox EC50 was 0.6 (inactive) and the EC50 was determined as 3.26 µM.

On to `CCCCc1ccc(NC(=O)c2c(C)noc2C)cc1`, for which the fold increase in Dox EC50 is 1.23 (inactive) and the EC50 stood at 6.63 µM.

For `COc1ccc(/C=C/C(=O)Nc2c(C)nn(C)c2C)cc1COc1ccc(Br)cc1`, the fold increase in Dox EC50 was 0.84 (inactive) and the EC50 turned out to be 4.51 µM.

Take `O=C1c2cccc3cccc(c23)C(=O)N1c1ccncc1`: the fold increase in Dox EC50 is 1.13 (inactive) and the half-maximal effective concentration (EC50) turned out to be 6.09 µM.

The record behind these values is PubChem BioAssay AID844 (SRMLSC, 2007).
